Here are results for four molecules from article PMC10918830, “Biosynthesis of Cytidine Diphosphate-6-D-Glucitol for the Capsular Polysaccharides of Campylobacter jejuni” (Biochemistry, 2024).

The target in data set [1] is T1, NAD(P)-dependent oxidoreductase HS5.17 (CDP-6-D-glucitol synthase) (Campylobacter jejuni, UniProt A0A0U3AP28).
T1 construct: full-length, N-terminal His6 tag (pET-28a), E. coli expression; tag removed by TEV for the 8V4G crystals, tag kept for 8V4H; dimer
Nature of the data set: X-ray crystal structure, […] Å. Type of data set: binding. The note with it: tag-free enzyme; ternary complex with NADP(H); pH 9.0.

Data set [2] concerns the target T1, NAD(P)-dependent oxidoreductase HS5.17 (CDP-6-D-glucitol synthase). Nature of the data set: X-ray crystal structure, […] Å. In kind it is binding. The conditions noted are these: tagged enzyme; crystallized with NADP(H), which was not observed; pH 8.0.
Data set [3] concerns the molecule itself. Nature of the data set: crystal structure; tag-free enzyme crystallized with 5 mM CDP and 5 mM NADP(H), PEG 8000, hexyleneglycol, 100 mM CHES pH 9.0; 2.0 Å; dimer in the asymmetric unit.
Data set [4] deals with the molecule itself. In words: crystal structure; tagged enzyme crystallized with 5 mM CDP-6-D-glucitol and 5 mM NADP(H), PEG 8000, 200 mM LiCl, 100 mM HEPPS pH 8.0; 2.2 Å; dimer in the asymmetric unit.

As a reminder, the stoichiometry N is the number of molecules, sites or subunits per partner or assembly.

Take `Nc1ccn([C@@H]2O[C@H](COP(=O)(O)OP(=O)(O)O)[C@@H](O)[C@H]2O)c(=O)n1` [CDP]: the “X-ray crystal structure, 2.0 Å” value in data set [1] is “The first structure determined of the oxidoreductase was that in complex with NADP(H) and CDP”.

For `Nc1ccn([C@@H]2O[C@H](COP(=O)(O)OP(=O)(O)OC[C@@H](O)[C@@H](O)[C@H](O)[C@@H](O)CO)[C@@H](O)[C@H]2O)c(=O)n1` [compound 3, CDP-6-D-glucitol], the “X-ray crystal structure, 2.2 Å” value in data set [2] is “The electron density was unambiguous for the CDP-6-D-glucitol ligands in both subunits”.

B1: NAD(P)-dependent oxidoreductase (HS5.17) from C. jejuni serotype HS:5, tag-free (enzyme, Campylobacter jejuni serotype HS:5)
chain: MNEILKKRLKLLKNNFGTHINKIANKKILITGANGYIGSILTLILHGNAKLYCLVRNKDKMIDRFQEICGDIDKIDIYEDLYKIQDKIDIVIHCAAPTQSDFFIENPIDTVDIIYTNTKNILDFSKKNNVEKIIFLSTMEIYGDVIGDNIVEDDIGKFSVTNIRNSYPLAKQISEFMVHSYSKKYSLSTAIVRLTQAIGPTAQINDNRVYMDFIRSAIKKSQITLFTKGETKREYIDVFDVATAIIFVMCEKKMFEIYNISNPNIFISIYDLAKTISAKLNVQVVFDLQRDTSQYLPSFSRRLNSKKIYQLGWTPLFDLNQSLDDMIKYIKEVNE
notes: putative NAD(P)-oxidoreductase HS5.17 of Campylobacter jejuni serotype HS:5 (ATCC 43433), UniProt A0A0U3AP28; gene synthesized and codon-optimized, in pET-28a(+) between NdeI and XhoI; electron density seen from Met 1 to Asn 334; His 0 left over from the purification tag; Crystallized with CDP and NADP(H) (PDB 8V4G); also called CDP-6-D-glucitol synthase; nucleotide sugar reductase; source: E. …
For B1, in data set [3], the “stoichiometry N” value came out at 2.

B2: NAD(P)-dependent oxidoreductase (HS5.17) from C. jejuni serotype HS:5, N-terminally histidine-tagged (enzyme, Campylobacter jejuni serotype HS:5)
chain: MNEILKKRLKLLKNNFGTHINKIANKKILITGANGYIGSILTLILHGNAKLYCLVRNKDKMIDRFQEICGDIDKIDIYEDLYKIQDKIDIVIHCAAPTQSDFFIENPIDTVDIIYTNTKNILDFSKKNNVEKIIFLSTMEIYGDVIGDNIVEDDIGKFSVTNIRNSYPLAKQISEFMVHSYSKKYSLSTAIVRLTQAIGPTAQINDNRVYMDFIRSAIKKSQITLFTKGETKREYIDVFDVATAIIFVMCEKKMFEIYNISNPNIFISIYDLAKTISAKLNVQVVFDLQRDTSQYLPSFSRRLNSKKIYQLGWTPLFDLNQSLDDMIKYIKEVNE
notes: putative NAD(P)-oxidoreductase HS5.17 of Campylobacter jejuni serotype HS:5 (ATCC 43433), UniProt A0A0U3AP28; gene synthesized and codon-optimized, in pET-28a(+) between NdeI and XhoI; electron density continuous from Met 1 to Asn 334, tag seen from Glu (-7) to Met 1 in Subunit B; Crystallized with CDP-6-D-glucitol (PDB 8V4H); also called CDP-6-D-glucitol synthase; nucleotide sugar reductase; …
With B2, the “stoichiometry N” value in data set [4] worked out at 2.
